Values after ≈ are worked out from the molar mass of the structure shown. Values joined by “and” are separate entries in the source; they are usually repeats but may differ in a detail not shown here. Equal values may be shown once.
Tests used:
Assay in all cases: ≥ marks a high value that may be exact or a test limit, other limits are often not marked, values filed in µg/mL are converted to µM
[1] = system: Enterobacter cloacae BCRC 10401
[2] = system: Escherichia coli BCRC 10675
[3] = system: Klebsiella aerogenes BCRC 10370
[4] = system: Klebsiella oxytoca BCRC 13985
Lactococcus garvieae = system: Lactococcus garvieae
[5] = system: Listeria monocytogenes BCRC 14845
[6] = system: Pseudomonas aeruginosa BCRC 10944
[7] = system: Staphylococcus aureus BCRC 10780
[8] = system: Staphylococcus aureus BCRC 10781
[9] = system: Staphylococcus xylosus BCRC 12930
[10] = system: Streptococcus equinus BCRC 14729
Streptococcus iniae = system: Streptococcus iniae
[11] = system: Vibrio alginolyticus BCRC 12829
Vibrio alginolyticus = system: Vibrio alginolyticus
[12] = system: Vibrio anguillarum serotype O1
Vibrio harveyi = system: Vibrio harveyi
[13] = system: Vibrio parahaemolyticus BCRC 10806
Vibrio parahaemolyticus = system: Vibrio parahaemolyticus
[14] = system: Yersinia enterocolitica BCRC 13999
[15] = system: Staphylococcus aureus 930918-3
[16] = system: Staphylococcus aureus ATCC 33591
Bacillus subtilis C971 = system: Bacillus subtilis C971
[17] = system: Corynebacterium xerosis C875
[18] = system: Enterococcus faecalis C625
Escherichia coli DC2 = system: Escherichia coli DC2
Escherichia coli UB1005 = system: Escherichia coli UB1005
[19] = system: Pseudomonas aeruginosa H187
[20] = system: Pseudomonas aeruginosa H188
[21] = system: Salmonella typhimurium C587
[22] = system: Salmonella typhimurium C610
[23] = system: Staphylococcus aureus ATCC 25923
[24] = system: Staphylococcus aureus SAP 0017
[25] = system: Staphylococcus epidermidis C621
[26] = system: Escherichia coli ATCC 25922
[27] = system: Pseudomonas aeruginosa ATCC 27853
[28] = system: Staphylococcus epidermidis ATCC 12228

`CC[C@H](C)[C@H](NC(=O)[C@H](Cc1ccc(O)cc1)NC(=O)[C@H](CC(N)=O)NC(=O)[C@H](Cc1ccccc1)NC(=O)[C@@H](NC(=O)[C@H](CCCCN)NC(=O)[C@H](CCCCN)NC(=O)[C@@H](NC(=O)[C@H](CC(C)C)NC(=O)[C@H](CC(N)=O)NC(=O)[C@H](C)NC(=O)[C@H](Cc1ccccc1)NC(=O)[C@H](CCCCN)NC(=O)[C@H](CCCCN)NC(=O)[C@H](C)NC(=O)[C@H](C)NC(=O)[C@H](CC(N)=O)NC(=O)[C@H](C)NC(=O)CN)[C@@H](C)CC)[C@@H](C)CC)C(=O)N[C@@H](Cc1c[nH]c2ccccc12)C(=O)O` [GANAAKKFANLIKKIFNYIW] showed an MIC [1] of 6.92 µM (≈ 16 µg/mL), an MIC [2] of 6.92 µM (≈ 16 µg/mL) and an MIC [3] of 6.92 µM (≈ 16 µg/mL). It also gave an MIC [4] of 13.8 µM (≈ 32 µg/mL), an MIC (Lactococcus garvieae) of at least 55.4 µM and an MIC [5] of 13.8 µM (≈ 32 µg/mL). The MIC [6] was 13.8 µM (≈ 32 µg/mL), the MIC [7] was 3.46 µM (≈ 8 µg/mL) and the MIC [8] was 6.92 µM (≈ 16 µg/mL). It also gave an MIC [9] of 6.92 µM (≈ 16 µg/mL), an MIC [10] of at least 55.4 µM and an MIC (Streptococcus iniae) of at least 55.4 µM. For the same compound, the MIC [11] was 13.8 µM (≈ 32 µg/mL), the MIC (Vibrio alginolyticus) was 6.92 µM (≈ 16 µg/mL) and the MIC [12] was 6.92 µM (≈ 16 µg/mL). For the same compound, the MIC (Vibrio harveyi) was 3.46 µM (≈ 8 µg/mL), the MIC [13] was 13.8 µM (≈ 32 µg/mL) and the MIC (Vibrio parahaemolyticus) was 6.92 µM (≈ 16 µg/mL). It also gave an MIC [14] of at least 55.4 µM.

For `CC[C@H](C)[C@H](NC(=O)CN)C(=O)N[C@@H](CCCCN)C(=O)N[C@H](C(=O)N[C@@H](C)C(=O)N[C@@H](CCCCN)C(=O)N[C@@H](CCCCN)C(=O)N[C@@H](C)C(=O)N[C@H](C(=O)N[C@H](C(=O)N[C@H](C(=O)N[C@@H](C)C(=O)N[C@@H](CCCCN)C(=O)N[C@@H](CCCCN)C(=O)N[C@H](C(=O)N[C@@H](C)C(=O)N[C@@H](CCCCN)C(=O)N[C@H](C(=O)N[C@@H](Cc1ccc(O)cc1)C(=O)N[C@@H](Cc1c[nH]c2ccccc12)C(=O)O)[C@@H](C)CC)[C@@H](C)CC)[C@@H](C)CC)[C@@H](C)O)[C@@H](C)CC)[C@@H](C)CC` [GIKIAKKAITIAKKIAKIYW], the MIC [1] was 3.54 µM (≈ 8 µg/mL), the MIC [2] was 7.09 µM (≈ 16 µg/mL) and the MIC [3] was 7.09 µM (≈ 16 µg/mL). For the same compound, the MIC [4] was 14.2 µM (≈ 32 µg/mL), the MIC (Lactococcus garvieae) was at least 56.7 µM and the MIC [5] was 14.2 µM (≈ 32 µg/mL). The MIC [6] was 7.09 µM (≈ 16 µg/mL), the MIC [7] was 14.2 µM (≈ 32 µg/mL) and the MIC [8] was 14.2 µM (≈ 32 µg/mL). The MIC [9] was 1.77 µM (≈ 4 µg/mL), the MIC [10] was at least 56.7 µM and the MIC (Streptococcus iniae) was at least 56.7 µM. It also gave an MIC [11] of at least 56.7 µM, an MIC (Vibrio alginolyticus) of 1.77 µM (≈ 4 µg/mL) and an MIC [12] of 14.2 µM (≈ 32 µg/mL). It also gave an MIC (Vibrio harveyi) of 14.2 µM (≈ 32 µg/mL), an MIC [13] of at least 56.7 µM and an MIC (Vibrio parahaemolyticus) of 7.09 µM (≈ 16 µg/mL). For the same compound, the MIC [14] was 14.2 µM (≈ 32 µg/mL).

With `CC[C@H](C)[C@H](NC(=O)[C@H](CCCCN)NC(=O)[C@H](CCCCN)NC(=O)[C@H](CC(C)C)NC(=O)[C@H](CCCCN)NC(=O)[C@H](CCC(=O)O)NC(=O)[C@H](CCCCN)NC(=O)[C@@H](NC(=O)[C@@H](N)CCCCN)[C@@H](C)CC)C(=O)NCC(=O)N[C@@H](CCC(N)=O)C(=O)N[C@@H](CCCCN)C(=O)N[C@H](C(=O)N[C@@H](CCC(N)=O)C(=O)NCC(=O)N[C@@H](CC(C)C)C(=O)N[C@@H](CC(C)C)C(=O)O)[C@@H](C)CC` [KIKEKLKKIGQKIQGLL] the MIC [15] was at least 127 µM and the MIC [16] was at least 127 µM.

Compound `CC[C@H](C)[C@H](NC(=O)[C@H](C)NC(=O)[C@H](CCCCN)NC(=O)[C@H](CC(C)C)NC(=O)[C@H](C)NC(=O)[C@@H](NC(=O)[C@H](Cc1cnc[nH]1)NC(=O)[C@H](CC(C)C)NC(=O)[C@@H](NC(=O)[C@@H](NC(=O)[C@H](CCCCN)NC(=O)[C@@H](NC(=O)[C@H](C)NC(=O)[C@H](C)NC(=O)[C@H](CCCCN)NC(=O)[C@H](Cc1ccccc1)NC(=O)[C@@H](NC(=O)[C@H](CCCCN)NC(=O)[C@H](CC(C)C)NC(=O)[C@H](Cc1ccccc1)NC(=O)[C@H](CO)NC(=O)[C@H](CCCCN)NC(=O)[C@H](Cc1c[nH]c2ccccc12)NC(=O)[C@H](CCCCN)NC(C)=O)[C@@H](C)O)C(C)C)[C@@H](C)O)C(C)C)[C@@H](C)O)C(=O)N[C@@H](CO)C(=O)N[C@@H](CO)C(N)=O` [KWKSFLKTFKAAVKTVLHTALKAISS] has an MIC (Bacillus subtilis C971) of 0.861 µM (≈ 2.54 µg/mL), an MIC [17] of 0.689 µM (≈ 2.03 µg/mL) and an MIC [18] of 6.95 µM (≈ 20.5 µg/mL). For the same compound, the MIC (Escherichia coli DC2) was 1.38 µM (≈ 4.06 µg/mL), the MIC (Escherichia coli UB1005) was 2.2 µM (≈ 6.49 µg/mL) and the MIC [19] was 3.48 µM (≈ 10.2 µg/mL). The MIC [20] was 5.51 µM (≈ 16.2 µg/mL), the MIC [21] was 6.95 µM (≈ 20.5 µg/mL) and the MIC [22] was 1.38 µM (≈ 4.06 µg/mL). For the same compound, the MIC [23] was 5.51 µM (≈ 16.2 µg/mL), the MIC [24] was 4.37 µM (≈ 12.9 µg/mL) and the MIC [25] was 1.38 µM (≈ 4.06 µg/mL).

In the case of `CC[C@H](C)[C@H](NC(=O)[C@H](C)NC(=O)[C@H](CCCCN)NC(=O)[C@H](CC(C)C)NC(=O)[C@H](C)NC(=O)[C@@H](NC(=O)[C@H](Cc1cnc[nH]1)NC(=O)[C@H](CC(C)C)NC(=O)[C@@H](NC(=O)[C@@H](NC(=O)[C@H](CCCCN)NC(=O)[C@H](CO)NC(=O)[C@H](C)NC(=O)[C@H](CO)NC(=O)[C@H](CCCCN)NC(=O)[C@H](Cc1ccccc1)NC(=O)[C@@H](NC(=O)[C@H](CCCCN)NC(=O)[C@H](CC(C)C)NC(=O)[C@H](Cc1ccccc1)NC(=O)[C@H](CO)NC(=O)[C@H](CCCCN)NC(=O)[C@H](Cc1c[nH]c2ccccc12)NC(=O)[C@H](CCCCN)NC(C)=O)[C@@H](C)O)[C@@H](C)O)C(C)C)[C@@H](C)O)C(=O)N[C@@H](CO)C(=O)N[C@@H](CO)C(N)=O` [KWKSFLKTFKSASKTVLHTALKAISS], the MIC (Bacillus subtilis C971) is reported as 0.86 µM (≈ 2.54 µg/mL), the MIC [17] is reported as 0.55 µM (≈ 1.62 µg/mL) and the MIC [18] is reported as 17.5 µM (≈ 51.5 µg/mL). The MIC [26] was 8 µM (≈ 23.6 µg/mL), the MIC (Escherichia coli DC2) was 0.86 µM (≈ 2.54 µg/mL) and the MIC (Escherichia coli UB1005) was 0.86 µM (≈ 2.54 µg/mL). It also gave an MIC [27] of 8 µM (≈ 23.6 µg/mL), an MIC [19] of 2.2 µM (≈ 6.49 µg/mL) and an MIC [20] of 3.47 µM (≈ 10.2 µg/mL). The MIC [21] was 2.2 µM (≈ 6.49 µg/mL), the MIC [22] was 0.688 µM (≈ 2.03 µg/mL) and the MIC [23] was 5.5 µM and 8 µM. It also gave an MIC [24] of 4.37 µM (≈ 12.9 µg/mL), an MIC [28] of 4 µM (≈ 11.8 µg/mL) and an MIC [25] of 1.38 µM (≈ 4.06 µg/mL).
